How the values were obtained:
[1] = test system: HSF-1; assay: Western blot HSF-1; type: in vivo, Caenorhabditis elegans; conditions: ThT treatment
Experimental: (§1) Peptide corresponding to amino acids 110-145 ([…]; SEQ ID NO:1) of HSP-16.2 was used to commercially synthesize antiserum (Invitrogen). Briefly, KLH-peptide was emulsified by mixing with an equal volume of Freund's adjuvant and injected into three subcutaneous dorsal sites for a total of 0.1 mg of peptide for immunization. The animals (rabbits) were bled, the blood allowed to clot and the serum collected by centrifugation. Monoclonal HSP-70 and Polyclonal HSF-1 primary antibodies were from stressgen (N27F3-4 and SPA-901, respectively).
(§2) Worms were transferred to siliconized eppendorf tubes, washed once in S-basal and frozen in liquid N2. Standard SDS-PAGE was performed using (4-12%) NOVEX gels and IVIES running buffer. Following transfer PVDF (BioRad) membranes were incubated with antisera (1:10000) or primary antibodies (1:1000) diluted in blocking buffer and then with secondary, goat anti-rabbit IgG antibody/horseradish peroxidase conjugate (Pierce), diluted 1:25000. Detection was undertaken with chemiluminescent reagents (SuperSignal, Pierce) and standard autoradiography.

[2] = test system: HSP-16.2; assay: Western blot HSP-16.2; type: in vivo, Caenorhabditis elegans; conditions: 50 μM ThT, 100 μM curcumin, 4 and 7 days of treatment
Experimental: as §1, §2

[3] = test system: SKN-1 fusion protein [CF2189 (skn-1::GFP)]; assay: SKN-1::GFP localization; type: in vivo, Caenorhabditis elegans; conditions: ThT treatment
Experimental: For fluorescent microscopy, TJ356 zIs356 IV [daf-16::daf-16-gfp+rol-6] or CF2189 Is001(skn-1::gfp+rol-6) were paralyzed with 1 mM levamisole mounted on 1% agarose pads and imaged using Olympus BX51 (60× objective) and HCImage software (Hamamatsu). For immunofluorescence, N2, […], CB1157 unc-54(e1157) or CL4176 dvIs27 [myo-3::Aβ(3 to 42)-let 3′UTR(pAF29); pRF4 (rol-6(su1006))] worms were treated for 24-36 h with or without 50 μM ThT at 25° C. After this period the worms were collected, rinsed, and fixed in 4% paraformaldehyde overnight. […] Paramyosin and perlecans were detected with primary monoclonal antibodies 5-23 and MH3 (developed by Henry Epstein and Robert H. Waterston and obtained from the Developmental Studies Hybridoma Bank developed under the auspices of the NICHD and maintained by The University of Iowa, Department of Biology, Iowa City, Iowa 52242) and AlexaFluor 633 goat anti-mouse (Molecular Probes) as secondary antibody. Soluble oligomers and Aβ peptide were detected with anti polyclonal All (Invitrogen) and 6E10 monoclonal (Covance) primary antibodies, respectively, with AlexaFluor 568 goat anti-rabbit and AlexaFluor 488 goat anti-mouse (Molecular Probes) as secondary antibodies. Images were processed and quantified by using Image Analyst MK II (Novato, Calif.).

[4] = test system: HSP-70; assay: Western blot HSP-70; type: in vivo, Caenorhabditis elegans; conditions: 50 μM ThT, 4 and 7 days of treatment
Experimental: as §1, §2

[5] = test system: wildtype (N2) C. elegans; assay: Lifespan assay, wildtype worms; type: in vivo
Experimental: Lifespan assays were performed as described previously. (McColl, G. et al. Pharmacogenetic analysis of lithium-induced delayed aging in Caenorhabditis elegans. J Biol Chem 283, 350-357 (2008). Briefly, the nematode growth media (NGM) plates were prepared under sterile conditions. 100 μL of concentrated stocks of each of the compounds used in this study were added onto a previously prepared NGM small plate (3 mL volume) immediately spread over the surface of the plate. The final concentrations quoted in the text assume an even distribution of compound throughout the 3 ml plate. The plates were then placed in a laminar flow hood at room temperature for 30 min and then 60 μL of a concentrated suspension of E. coli OP50 was spotted to form a circular lawn on the center of each plate. […] The first day of adulthood is Day 3 in survival curves. There was between-experiment variation in the magnitude of the lifespan extension observed with ThT which appeared to correlate with different suppliers and batches. ThT concentration should be optimized depending on batch and purity and stability of the compound. […] The optimal range for lifespan extension was between 25 and 75 μM.
Animals were scored as alive, dead or lost every other day. […] Animals that died from causes other than ageing, such as sticking to the plate walls, internal hatching of eggs (“bagging”) or gonadal extrusion were censored as were lost worms. Animals were transferred to fresh plates every 3-6 days. All lifespan experiments were performed at 20° C. unless otherwise stated. Survival curves were plotted and statistical analyses (log-rank test) were performed using the Prism 4 software (Graphpad™ Software, Inc., San Diego, Calif., USA).

[6] = test system: CB1157 [unc-54(e1157)I]; assay: Worm paralysis assay, unc-54 ts mutant; type: in vivo, Caenorhabditis elegans; conditions: restrictive temperature 25° C.
Experimental: Scoring for paralysis was initiated 2 and 8 days after temperature upshift for CL4176 and AM140, respectively. […] For sensitivity to EtOH or levamisole resistance, CW152 gas-1 (fc21) X and ZZ26 unc-63(x26)I worms were picked into 0.4 M EtOH or 50 μM levamisole, respectively, equilibrated for 5 min, and scored for paralysis as described above. Treated and untreated worms were compared with an unpaired t-test (implemented in Prism 4, Graphpad™ Software, Inc., San Diego, Calif., USA).

[7] = absence of FUdR, 50 μM, 20° C., 4 independent experiments
[8] = sterile N2 worms, 50 or 100 μM throughout adult life

In the case of `Cc1ccc2c(c1)sc(-c1ccc(N(C)C)cc1)[n+]2C.[Cl-]` [ThT, 4-(3,6-dimethyl-1,3-benzothiazol-3-ium-2-yl)-N,N-dimethylaniline chloride], the HSF-1 protein levels [1] is reported as “slight increase”, the HSP-16.2 protein levels [2] is reported as “up-regulated” and the “SKN-1::GFP nuclear accumulation” value [3] is reported as “no nuclear accumulation”. The HSP-70 protein levels [4] was “up-regulated”, the “effect on lifespan at higher doses” value ([5]; 500 μM) was “appears toxic and significantly shortens lifespan” and the “Average increase in median lifespan” value [5, 7] was 40%. The “increase in median lifespan, range over experiments” value [5, 7] was 30-70%, the “increase in maximal lifespan” value [5, 8] was 43-78% and the “increase in median lifespan” value [5, 8] was 60%. For the same compound, the “paralysis phenotype of unc-54 mutant” value [6] was “suppressed paralysis”.
